Data as given in US20120283269A1, “Method and Compositions for Suppression of Aging” (HEALTH RESEARCH INC., priority 2009, published 2012).

How the values were obtained:
[1] = system: WI-38-tert cells; assay: Senescence / quiescence in WI-38-tert fibroblasts; type: cell-based, human; conditions: compound alone
Description: (§1) FIG. 4. […] HT-p21-a cells were treated with IPTG and infected with Ad-p53. After 3 days, cells were photographed (original magnification ×200): Upper panel. Under blue light to visualize cells expressing p53 (green cells). Lower panel. Under visible light to visualize all cells. Red arrows indicate cells lacking p53 expression. All of these cells show large, flat cell morphology. Green arrows indicate cells expressing p53. b-d. […] After 1 day, cells were lysed and immunoblot was performed as described in Methods for Example 1. c. […] Cells were then stained for beta-Gal activity and microphotographed. Scale bar—50 μm.d. […] Cells were then trypsinized and counted. […] Results are shown as percent of control.
FIG. 11. Effects of Ad-p21 and Ad-p53 on senescent morphology in WI-38-tert fibroblasts. WI-38-tert cells were infected with either p21-expressing adenovirus (Ad-p21) or p53-expressing adenovirus (Ad-p53) or both. After 3 days, cells were stained for beta-Gal.
Cell lines and reagents. HT-p21-9 and HT-p21-a cells are derivatives of HT1080 human fibrosarcoma cells, where p21 expression can be turned on or off using isopropyl-thio-galactosidase (IPTG) (7, 16, 28, 29, 36). […] HT-p16 cells are derivatives of HT1080 cells in which p16 expression can be turned on or off using IPTG (16, 36). WI-38-Tert, WI-38 are fibroblasts immortalized by telomerase. HT-p21-GSE56 cells: p53 inhibiting peptide GSE56 (18) was introduced into HT1080 p21-9 cells via a retroviral vector LXSE (37). Cells were grown in high glucose DMEM with 10% FC2 serum. WI-38-tert cells were grown in low glucose DMEM with 10% FCS. Rapamycin was obtained from LC Laboratories (Woburn, Mass.). IPTG (final concentration of 50 μg/ml) and FC2 were obtained from Sigma-Aldrich (St. Louis, Mo.).
Beta-galactosidase staining Beta-gal staining was performed using Senescence-galactosidase staining kit (Cell Signaling Technology).

[2] = system: mTOR pathway; assay: Immunoblot for p53, p-S6, p-S6K in WI-38-tert fibroblasts; type: cell-based, human
Description: as §1
FIG. 12. […] Immunoblot for p53, p-S6, p-S6K, S6 and actin was performed as described in Methods for Example 1.
Immunoblot analysis. Proteins were separated on 4-15% gradient Tris-HCl gels (Bio-Rad). The following antibodies were used: mouse anti-actin from Santa Cruz Biotechnology, rabbit anti-phospho-S6 (Ser240/244) and (Ser235/236), mouse anti-S6, mouse anti-phospho-p70 S6 kinase (Thr389), mouse anti-p21 and anti-p53, rabbit anti-phospho-4E-BP1 (Thr37/46) from Cell Signaling; mouse anti-4E-BP1 from Invitrogen, mouse anti-p53 (Ab-6) from Calbiochem.

[3] = system: HT-p21-9 cells; conditions: previously reported (Demidenko 2009); cited from earlier work
[4] = system: mTOR pathway; conditions: previously reported (Demidenko 2009); cited from earlier work
[5] = system: HT-p21 cells; assay: Cellular hypertrophy (protein and GFP per cell) in IPTG-treated HT-p21 cells, rapamycin dose response; type: cell-based, human; conditions: this particular cell line
Description: (§2) FIG. 18. Correlation between S6 phosphorylation, hypertrophy and loss of proliferative potential in senescent cells. HT-p21 cells were plated in 6 well plates and treated with IPTG plus the increasing concentrations of rapamycin (from 0.16 to 500 nM). At concentration 0, cells were treated with IPTG alone. A. Cellular hypertrophy: protein and GFP. After 3 days, soluble protein and GFP were measured per well. [Note: in non-proliferating cells, protein/well is a measure of protein/cells]. Results are shown as percent of IPTG alone (0) without rapamycin. B. After 3 days, cells were lysed and immunobloted for p-S6, S6 and p21.
Cell lines and reagents. In HT-p21 cells, p21 expression can be turned on or off using […] (IPTG). HT-p21 cells were cultured in DMEM medium supplemented with FC2 serum. Rapamycin was obtained from LC Laboratories and dissolved in DMSO as 2 mM solution and was used at final concentration of 500 nM, unless otherwise indicated. IPTG and FC2 were obtained from Sigma-Aldrich (St. Louis, Mo.). IPTG was dissolved in water as 50 mg/ml stock solution and used in cell culture at final concentration of 50 μg/ml.

[6] = system: S6 phosphorylation, a marker of mTOR activity; assay: Immunoblot for p-S6, S6 and p21 in IPTG-treated HT-p21 cells, rapamycin; type: cell-based, human; conditions: IPTG plus rapamycin, 3 days
Description: as §2
FIG. 24. Induction of p21 by IPTG. HT-p21 cells were plated in 6 well plates and treated with IPTG with or without rapamycin as indicated. The next day, cells were lysed and immunoblot for p-S6, S and p21 was performed as described in Methods.
Immunoblot analysis. Cells were lysed and soluble proteins were harvested as previously described. […] Cells were counted on a Coulter Z1 cell counter (Hialeah, Fla.). […] Plates were photographed and the number of colonies were determined as previously described. […] Thereafter, cells were washed in PBS, and the number of -galactosidase activity-positive cells (blue staining) were counted under bright field illumination.

[7] = system: HT-p21 cells; assay: Preservation of proliferative competence (PC), cell counting after wash; type: cell-based, human
Description: C. PC: preservation of proliferative competence. After 3 days, cells were washed to remove IPTG and RAPA. Cells were incubated for additional 5 days in the fresh medium and then were counted. Results are shown as percent of IPTG alone (0) without rapamycin.
FIG. 20. The dynamics of cell numbers. 500 HT-p21 cells were plated in 12 well plates. On the next day, either IPTG alone (I) or IPTG plus rapamycin (I+R) were added. After 3 days, plates were washed (I/w and I+R/w) or left unwashed. Cells were counted at days 1, 3, 6 and 9. Upper panel: linear-scale. Lower panel: log-scale. Open and closed squares: IPTG and IPTG plus Rapa, respectively. Open and closed circles: IPTG washed (I/w) and IPTG plus Rapa washed (I+R/w), respectively.
Immunoblot analysis. Cells were lysed and soluble proteins were harvested as previously described. Immunoblot analysis was performed using mouse monoclonal anti-p21, mouse monoclonal anti-phospho-S6 Ser240/244 (Cell Signaling, MA, USA), rabbit polyclonal anti-S6 (Cell Signaling, MA, USA) and mouse monoclonal anti-tubulin Ab as previously described. Cell counting. Cells were counted on a Coulter Z1 cell counter (Hialeah, Fla.). […] Plates were photographed and the number of colonies were determined as previously described. […] Thereafter, cells were washed in PBS, and the number of -galactosidase activity-positive cells (blue staining) were counted under bright field illumination.

[8] = system: HT-p21 cells; assay: Colony formation assay after IPTG with or without rapamycin; type: cell-based, human; conditions: IPTG plus rapamycin 3 days, washed; versus IPTG alone

COc1cccc2c1C(=O)c1c(O)c3c(c(O)c1C2=O)C[C@@](O)(C(=O)CO)C[C@@H]3O[C@H]1C[C@H](N)[C@H](O)[C@H](C)O1 [doxorubicin]
type of arrest in WI-38-tert cells [1]: caused senescence in WI-38-tert cells
inhibition of mTOR [2]: does not inhibit mTOR

N#CC(=C(/N)Sc1ccccc1N)/C(C#N)=C(\N)Sc1ccccc1N [U0126]
cellular senescence [3]: suppress cellular senescence
mTOR pathway in HT-p21-9 cells, measured by phosphorylation of S6 [4]: deactivate the mTOR pathway

CO[C@H]1C[C@@H]2CC[C@@H](C)[C@@](O)(O2)C(=O)C(=O)N2CCCC[C@H]2C(=O)O[C@H]([C@H](C)C[C@@H]2CC[C@@H](O)[C@H](OC)C2)CC(=O)[C@H](C)/C=C(\C)[C@@H](O)[C@@H](OC)C(=O)[C@H](C)C[C@H](C)/C=C/C=C/C=C/1C [rapamycin]
concentration required for anti-hypertrophic effects [5]: 100 to 500 nM
concentrations that inhibited S6 phosphorylation [6]: ≥ 20 nM
doubling time of the competent cells ([7]; I/w and I+R/w conditions): 20 to 24 h
PC (preservation of competence) ([7]; IPTG plus rapamycin 3 days, washed, 5 more days, percent of IPTG alone): 800%
increase in number of colonies (number of competent cells) [8]: ~10 fold
